Where two headings read alike, the source gives them in different places.

Assay [1] addresses recombinant human Bcl-2-G101V protein (Homo sapiens (Human), UniProt P10415, G101V). In words: Bcl-2-G101V TR-FRET Assay. Conditions: Bcl-2 G101V mutant, TR-FRET; read-out: Biochemical assay (IC50, nM) Bcl-2 G101V. It is filed as binding. The method, boiled down: (§1)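 Displacement of ligand from recombinant human Bcl-2-G101V measured by TR-FRET (ex337 nm, em490/520 nm), inhibition derived from the 490/520 ratio across compound titrations. IC50 from four-parameter logistic fit.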
(In general: Time-resolved FRET reads energy transfer from a long-lived donor to a nearby acceptor.)

In assay [2] the test system is recombinant human Bcl-2-G101V protein. In words: Bcl-2-G101V TR-FRET Assay. It is filed as binding. Conditions: ratio of biochemical IC50 Bcl-2 G101V / Bcl-2 WT. The method in brief:
as §1

Assay [3] deals with Recombinant human Bcl-2 protein (Homo sapiens (Human), UniProt P10415). In words: Bcl-2 TR-FRET Assay. It is filed as binding. The method in brief:
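TR-FRET read (337 nm excitation, 520/490 nm emission) after 1 h with 0.5 nM FITC-labeled Bak peptide and Tb-cryptate anti-6His antibody. Bcl-2 at 0.05 nM had been pre-incubated 0.5 h with compound. IC50 fitted by four-parameter logistic equation.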

The subject of assay [4] is BCL-2 G101V knock-in cell line H96 (derive from RS4;11). In words: Bcl 2-G101V Knock-In RS4;11 Cell Proliferation Assay. Type of assay: cell-based. Conditions: Homo sapiens, RS4;11 Bcl-2 G101V knock-in clone H96, 48 hrs, CellTiter-GLO, read-out: Cellular proliferation assay (IC50, nM) RS4. The method, boiled down: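 CellTiter-Glo luminescence after 48 h, 37 °C compound treatment (10 concentrations, maximum 1 μM or 10 μM) gave mean IC50 values. Cells were 50,000 per well of H96, a BCL2-G101V knock-in single clone derived from RS4;11 by Cas9 editing.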
For orientation: Cellular ATP, detected with luciferase, serves as a proxy for viable cell number.

Assay [5] concerns the target recombinant human Bcl-2 D103Y protein (Homo sapiens (Human), UniProt P10415, D103Y). In words: Bcl-2-D103Y Biochemical Assay (TR-FRET). Type of assay: binding. Conditions: for IC50: TR-FRET, FITC labeled Bak peptide; for Ratio of Bcl-2 D103Y/Bcl-2 WT: ratio of IC50. The method in brief: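 Compounds titrated against the Bcl-2 D103Y–ligand interaction; inhibition derived from the TR-FRET emission ratio 490 nm/520 nm after 337 nm excitation. Four-parameter logistic fitting gave IC50.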

For assay [6], the system named is RS4;11 (BCL-2 dependent acute lymphoblastic leukemia cell line). In words: RS4;11 Cell Proliferation Assay. Type of assay: cell-based. Conditions: Homo sapiens, RS4-11, RS4;11 cells, read-out: Cellular proliferation assay (IC50, nM) RS4. The method, boiled down:
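Viability measured via CellTiter-Glo luminescence after a 48 h, 37 °C exposure to compounds (10 points, highest 1 μM). Seeding was 50,000 RS4;11 cells per well in 10% FBS RPMI-1640; IC50 given as mean.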

Where [7] appears, read: Bcl-2 wild type, TR-FRET, read-out: Biochemical assay (IC50, nM) Bcl-2 WT.
The mark [8] stands for this setting: wild type Bcl-2, unit inferred, read-out: Bcl-2 WT.

Consider `COc1cc(CN2CCN(C3CC4(C3)CN(c3ccc(C(=O)NS(=O)(=O)c5ccc(NC[C@H]6CC[C@](C)(O)CC6)c([N+](=O)[O-])c5)c(Oc5cnc6[nH]cc(F)c6c5)c3)C4)[C@H](c3ccccc3C(C)C)C2)ccc1F` [Example 184, 2-((3-fluoro-1H-pyrrolo[2,3-b]pyridin-5-yl)oxy)-4-(6-((R)-4-(4-fluoro-3-methoxybenzyl)-2-(2-isopropylphenyl)piperazin-1-yl)-2-azaspiro[3.3]heptan-2-yl)-N-((4-((((1r,4r)-4-hydroxy-4-methylcyclohexyl)methyl)amino)-3-nitrophenyl)sulfonyl)benzamide], for which the IC50 is 0.53 nM in assay [1]; 0.19 nM in assay [3] (setting [7]); 0.19 nM in assay [3] (setting [8]); 0.44 nM in assay [4]; 0.19 nM in assay [5]; 0.16 nM in assay [6]. Moreover, the “Ratio of Bcl-2 G101V/WT” value in assay [2] turned out to be 2.9. The “Ratio of Bcl-2 D103Y/Bcl-2 WT” value in assay [5] came to 1.

Take `CC(C)c1ccccc1[C@@H]1CN(Cc2ccc(Cl)cc2)CCN1C1CC2(CCN(c3ccc(C(=O)NS(=O)(=O)c4ccc(NC[C@H]5CC[C@](C)(O)CC5)c([N+](=O)[O-])c4)c(Oc4cnc5[nH]ccc5c4)c3)CC2)C1` (single isomer, unassigned) [Example 29a, 2-((1H-pyrrolo[2,3-b]pyridin-5-yl)oxy)-4-(2-((R or S)-4-(4-chlorobenzyl)-2-(2-isopropylphenyl)piperazin-1-yl)-7-azaspiro[3.5]nonan-7-yl)-N-((4-((((1r,4r)-4-hydroxy-4-methylcyclohexyl)methyl)amino)-3-nitrophenyl)sulfonyl)benzamide]: the IC50 in assay [1] turned out to be 0.72 nM; in assay [3] (setting [7]) it was 0.2 nM; in assay [3] (setting [8]) it was 0.2 nM; in assay [4], 1.42 nM; in assay [5], 0.38 nM; in assay [6] it was 0.22 nM. Moreover, the “Ratio of Bcl-2 G101V/WT” value in assay [2] was 3.5. Besides, the “Ratio of Bcl-2 D103Y/Bcl-2 WT” value in assay [5] stood at 1.9.

Consider `COc1cc(CN2CCN(C3CC4(C3)CN(c3ccc(C(=O)NS(=O)(=O)c5ccc(NC[C@H]6CC[C@](C)(O)CC6)c([N+](=O)[O-])c5)c(Oc5cnc6[nH]cc(F)c6c5)c3)C4)[C@H](c3ccccc3C(C)C)C2)ccc1OC1CCC1` [Example 350, 4-(6-((R)-4-(4-cyclobutoxy-3-methoxybenzyl)-2-(2-isopropylphenyl)piperazin-1-yl)-2-azaspiro[3.3]heptan-2-yl)-2-((3-fluoro-1H-pyrrolo[2,3-b]pyridin-5-yl)oxy)-N-((4-((((1r,4r)-4-hydroxy-4-methylcyclohexyl)methyl)amino)-3-nitrophenyl)sulfonyl) benzamide], for which the IC50 in assay [1] was determined as 0.99 nM; in assay [3] (setting [7]) it was 0.48 nM; in assay [3] (setting [8]), 0.48 nM; in assay [4], 0.79 nM; in assay [5], 0.65 nM; in assay [6] it was 0.23 nM. For the same compound, the “Ratio of Bcl-2 G101V/WT” value in assay [2] was 2.2. Further, the “Ratio of Bcl-2 D103Y/Bcl-2 WT” value in assay [5] amounted to 1.4.

On to `COc1cc(CN2CCN(C3CC4(C3)CN(c3ccc(C(=O)NS(=O)(=O)c5ccc(NC[C@H]6CC[C@](C)(O)CC6)c([N+](=O)[O-])c5)c(Oc5cnc6[nH]ccc6c5)c3)C4)[C@H](c3ccccc3C(C)C)C2)ccc1OC1CC1` [Example 343, 2-((1H-pyrrolo[2,3-b]pyridin-5-yl)oxy)-4-(6-((R)-4-(4-cyclopropoxy-3-methoxybenzyl)-2-(2-isopropylphenyl)piperazin-1-yl)-2-azaspiro[3.3]heptan-2-yl)-N-((4-((((1r,4r)-4-hydroxy-4-methylcyclohexyl)methyl)amino)-3-nitrophenyl)sulfonyl)benzamide], for which the IC50 in assay [1] came to 0.3 nM; in assay [3] (setting [7]), 0.11 nM; in assay [3] (setting [8]), 0.11 nM; in assay [4] it was 0.25 nM; in assay [5] it was 0.09 nM; in assay [6] it was 0.11 nM. For the same compound, the “Ratio of Bcl-2 G101V/WT” value in assay [2] was found to be 2.7. The “Ratio of Bcl-2 D103Y/Bcl-2 WT” value in assay [5] is 0.8.

Values taken from patent US20240376097A1, “BCL-2 Inhibitor” (BeiGene Ltd., priority 2020, published 2024).
